# From ChEMBL document CHEMBL4433235, “Discovery of piperazic acid peptide deformylase inhibitors with in vivo activity for respiratory tract and skin infections” (Bioorg Med Chem Lett, 2019)
# How the values were obtained:
# [1] = test system: Streptococcus pneumoniae; assay: Antimicrobial activity against Streptococcus pneumoniae 1629; assay type: functional
# [2] = test system: Staphylococcus aureus; assay: Antimicrobial activity against Staphylococcus aureus Oxford; assay type: functional
# [3] = molecular target: T1, Peptide deformylase (Staphylococcus aureus, UniProt P68826); assay: Inhibition of Staphylococcus aureus PDF by absorbance detection assay
# T1 sequence (P68826 whole entry): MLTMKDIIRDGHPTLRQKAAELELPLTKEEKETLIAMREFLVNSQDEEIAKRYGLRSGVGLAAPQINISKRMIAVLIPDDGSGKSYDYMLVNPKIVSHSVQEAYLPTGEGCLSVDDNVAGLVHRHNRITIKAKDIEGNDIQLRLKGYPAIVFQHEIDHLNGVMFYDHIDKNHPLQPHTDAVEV
# [4] = Solubility of compound by chemiluminescent nitrogen detection assay; assay type: physicochemical
# [5] = Chromatographic hydrophobicity index, log D of compound at pH 7.4; assay type: physicochemical; conditions: buffer
# [6] = test system: Haemophilus influenzae; assay: Antimicrobial activity against Haemophilus influenzae Q1; assay type: functional
# [7] = Inhibition of Haemophilus influenzae PDF by absorbance detection assay
# [8] = Inhibition of Streptococcus pneumoniae PDF by absorbance detection assay
# [9] = Inhibition of Haemophilus influenzae PDF by fluorescence detection assay
# [10] = molecular target: T1, Peptide deformylase; assay: Inhibition of Staphylococcus aureus PDF by fluorescence detection assay
# [11] = Inhibition of Streptococcus pneumoniae PDF by fluorescence detection assay
# [12] = test system: Staphylococcus aureus; assay: Antimicrobial activity against Staphylococcus aureus; assay type: functional
# [13] = test system: Streptococcus pneumoniae; assay: Antimicrobial activity against Streptococcus pneumoniae; assay type: functional
# [14] = test system: Haemophilus influenzae; assay: Antimicrobial activity against Haemophilus influenzae; assay type: functional
# [15] = molecular target: T2, Peptide deformylase (Escherichia coli, UniProt Q9JN24); assay: Inhibition of Escherichia coli PDF
# T2 sequence (Q9JN24 whole entry): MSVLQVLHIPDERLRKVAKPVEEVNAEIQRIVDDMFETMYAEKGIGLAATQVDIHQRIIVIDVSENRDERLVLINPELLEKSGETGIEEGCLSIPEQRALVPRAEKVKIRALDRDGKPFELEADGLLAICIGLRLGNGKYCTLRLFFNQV
# [16] = test system: Streptococcus pneumoniae; assay: Antimicrobial activity against Streptococcus pneumoniae Ery-2 infected in respiratory tract infection rat model assessed as log reduction in bacterial CFU at 350 mg/kg, po BID dosed 1 hr post infection and measured for 96 hrs in presence of 50 mg/kg clavulanic acid; assay type: functional
# [17] = test system: Streptococcus pneumoniae; assay: Antimicrobial activity against Streptococcus pneumoniae Ery-2 in presence of clavulanic acid; assay type: functional
# [18] = Oral bioavailability in rat at 8.5 mg/kg; assay type: ADME, organism-based; conditions: in vivo
# [19] = AUC in rat at 3.9 mg/kg, iv; assay type: ADME, organism-based; conditions: in vivo
# [20] = AUC in rat at 8.5 mg/kg, po; assay type: ADME, organism-based; conditions: in vivo
# [21] = Cmax in rat at 8.5 mg/kg, po; assay type: ADME, organism-based; set-up: dose 8.5 mg/kg, route oral; conditions: in vivo
# [22] = Half life in rat at 3.9 mg/kg, iv; assay type: ADME, organism-based; conditions: in vivo
# [23] = Volume of distribution at steady state in rat at 3.9 mg/kg, iv; assay type: ADME, organism-based; conditions: in vivo, read-out: Vdss
# [24] = Clearance in rat at 3.9 mg/kg, iv; assay type: ADME, organism-based; conditions: in vivo
MIC [1] [µg/mL],MIC [2] [µg/mL],IC50 [3] [nM],solubility kinetic [4] [µM],CHI [5],MIC [6] [µg/mL],IC50 [8] [nM],IC50 [9] [nM],IC50 [10] [nM],IC50 [11] [nM],MIC90 [12] [µg/mL],MIC90 [13] [µg/mL],MIC90 [14] [µg/mL],SMILES,other results
8,2,,> 544,3.2,0.5,,79,158,40,,,,O=CN(O)C[C@@H](CC1CCCC1)C(=O)N1NCCC[C@H]1C(=O)Nc1cccc2c1COB2O,
0.5,4,,> 364,4.88,4,,32,20,8,,,,CN(C)c1cccc(NC(=O)[C@@H]2CCCNN2C(=O)[C@H](CC2CCCC2)CN(O)C=O)n1,
2,1,,> 565,4.05,2,,40,2,0.4,1,1,4,Cc1ccnc(NC(=O)[C@@H]2CCCNN2C(=O)[C@H](CC2CCCC2)CN(O)C=O)c1,
1,0.5,2,> 739,4.13,0.5,0.6,,,,1,2,2,O=CN(O)C[C@@H](CC1CCCC1)C(=O)N1NCCC[C@H]1C(=O)Nc1ccc(F)cn1,

# More lines, now with the values behind:
SMILES,MIC [1] [µg/mL],MIC [2] [µg/mL],IC50 [3] [nM],solubility kinetic [4] [µM],CHI [5],MIC [6] [µg/mL],IC50 [8] [nM],IC50 [9] [nM],IC50 [10] [nM],IC50 [11] [nM],MIC90 [12] [µg/mL],MIC90 [13] [µg/mL],MIC90 [14] [µg/mL],other results
O=CN(O)C[C@@H](CC1CCCC1)C(=O)N1NCCC[C@H]1C(=O)Nc1ccccn1,1,0.5,2,> 463,3.71,0.5,1,,,,,,,IC50 [7]: 3 nM
CN(C(=O)[C@@H]1CCCNN1C(=O)[C@H](CC1CCCC1)CN(O)C=O)c1ccccn1,2,4,18,> 657,3.3,4,8,,,,,,,IC50 [7]: 15 nM
Cc1ccc(NC(=O)[C@@H]2CCCNN2C(=O)[C@H](CC2CCCC2)CN(O)C=O)nc1,2,1,,> 565,4.1,1,,25,2,0.6,1,2,4,
CCC(=O)[C@@H](NC(=O)[C@@H]1CCCNN1C(=O)[C@@H](CC(=O)O)CC(C)C)C(C)C,,,,,,,,,,,,,,Ki [15]: 60 nM
CN1CCN(c2cc(NC(=O)[C@@H]3CCCNN3C(=O)[C@H](CC3CCCC3)CN(O)C=O)ncn2)CC1,0.25,0.5,,> 573,2.7,2,,25,3,1,0.5,0.25,2,
CN(C)c1cc(NC(=O)[C@@H]2CCCNN2C(=O)[C@H](CC2CCCC2)CN(O)C=O)ncn1,0.5,0.5,,> 649,3.38,2,,13,1,0.3,,,,
CC1(C)S[C@@H]2[C@H](NC(=O)[C@H](N)c3ccc(O)cc3)C(=O)N2[C@H]1C(=O)O [AMOXICILLIN],,,,,,,,,,,,,,Activity [16]: 5.2 log10CFU/ml; MIC [17]: 0.03 µg/mL
Cc1nc(NNC(=O)[C@H](CC2CCCC2)CN(O)C=O)c(F)c(N2CCN3CCOC[C@@H]3C2)n1 [LANOPEPDEN],1,2,12,241,2.54,0.5,3,,,,4,1,2,bioavailability [18]: 91%; AUC [19]: 720 ng·h/mL; AUC [20]: 1450 ng·h/mL; Cmax [21]: 902 ng/mL; half-life [22]: 42 min; IC50 [7]: 3 nM; Vd [23]: 2.5 L/kg; clearance [24]: 88 mL/min/kg
